Where two headings read alike, the source gives them in different places.
Experiments:
male NMRI mice [1] = experiment: Phencyclidine (PCP)-induced hyperlocomotion in mice; format: in vivo; settings: Mus musculus; mice; PCP 5 mg/kg s.c.; criterion total distance <5500 counts; not marked as oral; read-out: ED50 PCP-Inh.
Experimental: (§1) On the day of experiments, the mice were brought into the procedural room. They were housed individually and allowed to acclimate for at least a half hour prior to testing. Although the studies were conducted during the light cycle (from 8:00 to 16:00 h), the procedure room was only sparsely lit (3 to 30 LUX) to provide better contrast for the video tracking. Local lighting was used for the injection procedures. During each trial, an individual mouse was placed in an open field arena (grey PVC cylinder with a height of 40 cm and a diameter of 22.5 cm). Each arena was placed on an infrared LED (8×8 LEDs)-lit box (white PVC squared box; 40×40 cm^2; height 12.5 cm). Each mouse was placed in the center of the arena and allowed to explore freely for 30 min. After each trial, the arena was cleaned with a wet and subsequently with a dry cleaning cloth. An infrared sensitive tube camera and a white light source (in arena: 4-7 LUX) were mounted to the ceiling above the observation chamber to record and input activity to a computer. Animal behavior was recorded and analyzed using the Noldus Ethovision XT Video Tracking System (Version 3.1; Noldus, Wageningen, The Netherlands). The total distance traveled (cm) was calculated. Data were then exported to data management systems for further analysis and reporting.
Test compound or solvent was administered at a pre-defined time before measurement (standard: 30 min) to male NMRI mice that were challenged with phencyclidine (PCP; 5 mg/kg, s.c.) 30 min before measurement. Activity was measured for a period of 30 min.

human mGluR2 receptor = biological target: T1, human mGluR2 receptor (Homo sapiens, UniProt Q14416); experiment: [35S]GTPγS binding assay (PAM); format: biochemical; settings: in presence of glutamate at predetermined EC20; membranes from CHO cells transfected with human mGluR2; read-out: GTPγS -hR2 PAM pEC50 (converted)
T1 construct: expressed in transfected cells; host or cells: CHO cells (membranes)
Experimental: [^35S]GTPγS binding assay
The [^35S]GTPγS binding assay is a functional membrane-based assay used to study G-protein coupled receptor (GPCR) function whereby incorporation of a non-hydrolysable form of GTP, [^35S]GTPγS (guanosine 5′-triphosphate, labelled with […] ^35S), is measured.
CHO-cells were cultured to pre-confluence and stimulated with 5 mM butyrate for 24 h, prior to washing in PBS, and then collected by scraping in homogenisation buffer (50 mM Tris-HCl buffer, pH 7.4, 4° C.). Cell lysates were homogenized briefly using an ultra-turrax homogenizer. The homogenate was centrifuged at 16,000 RPM (Sorvall RC-5C plus rotor SS-34) for 10 minutes and the supernatant discarded. The pellet was resuspended in 5 mM Tris-HCl, pH 7.4 and centrifuged again (18,000 RPM, 20 min, 4° C.). The final pellet was resuspended in 50 mM Tris-HCl, pH 7.4 and stored at −80° C. in appropriate aliquots before use. Protein concentration was determined by the Bradford method (Bio-Rad, USA) with bovine serum albumin as standard.
Measurement of mGluR2 positive allosteric modulatory activity of test compounds was performed as follows. Test compounds and glutamate were diluted in assay buffer containing 10 mM HEPES acid, 10 mM HEPES salt, pH 7.4, 100 mM NaCl, 3 mM MgCl2 and 10 μM GDP. Human mGlu2 receptor-containing membranes were thawed on ice and diluted in assay buffer supplemented with 14 μg/ml saponin. Membranes were pre-incubated with compound alone or together with a predefined (˜EC20) concentration of glutamate (PAM assay) for 30 min at 30° C. After addition of [^35S]GTPγS (f.c. 0.1 nM) microplates were shaken briefly and further incubated to allow [^35S]GTPγS incorporation on activation (30 minutes, 30° C.). Final assay mixtures contained 7 μg of membrane protein in 10 mM HEPES acid, 10 mM HEPES salt, pH 7.4, 100 mM NaCl, 3 mM MgCl2, 10 μM GDP and 10 μg/ml saponin. Total reaction volume was […] Reactions were terminated by rapid filtration through Unifilter-96 GF/B filter plates (Packard, Meriden, Conn.) using a 96-well Packard filtermate harvester. Filters were washed 6 times with ice-cold 10 mM NaH2PO4/10 mM Na2HPO4, pH 7.4. Filters were then air-dried, and 40 μl of liquid scintillation cocktail (Microscint-O) was added to each well. Membrane-bound radioactivity was counted in a Microplate Scintillation and Luminescence Counter from Packard.
obtained in the presence of EC20 of mGluR2 agonist glutamate to determine positive allosteric modulation (PAM)—were generated using the Lexis software interface (developed at J&J). Data were calculated as % of the control glutamate response, defined as the maximal response that is generated upon addition of glutamate alone. Sigmoid concentration-response curves plotting these percentages versus the log concentration of the test compound were analyzed using non-linear regression analysis. The concentration producing half-maximal effect is then calculated as EC50.
All compounds were tested in presence of mGluR2 agonist, glutamate at a predetermined EC20 concentration, to determine positive allosteric modulation (GTPγS-PAM). pEC50 values were calculated from a concentration-response experiment of at least 10 concentrations.

Male mice (C57BL/6) = experiment: Reversal of memantine-induced brain activation ([14C]2DG uptake) in mice; format: in vivo; settings: for L.A.D. (lowest active dose) for significant (p<0.05) reduction of 2DG uptake in the hippocampus compared to memantine response: mice, s.c., memantine 20 mg/kg s.c.
Experimental: Reversal of Memantine-Induced Brain Activation in Mice NMDA receptor hypofunction is hypothesized to be involved in schizophrenia.
Autoradiographic assessment of radiolabeled [^14C]-2-deoxyglucose ([^14C]2DG) uptake is commonly used to investigate brain activation. In humans, cerebral blood flow is increased in specific brain regions after administration of a subanaesthetic dose of ketamine.
Male mice (C57BL/6, weight 24-28 g, fasted overnight; n=10 animals per group) were treated with vehicle or test compound (s.c.) in randomized order (t=0 min). Memantine (20 mg/kg, s.c.) was injected 30 min later (t=30 min). At t=45 min, [^14C]2DG (0.16 μCi/g) was administered intraperitoneally (i.p.), followed by a 45 min uptake period. Animals were decapitated (t=90 min), plasma glucose levels measured, the brain removed, rapidly frozen and stored at −20° C. until sectioned. Brain sections were exposed together to a precalibrated [^14C]standard on film, which was developed after four days of exposure. Local tissue [^14C]concentration (nCi/mg tissue equivalent—TEQ-) in each region of interest was determined.
Data was analyzed statistically using a two-way ANOVA analysis followed by post-hoc tests (memantine response versus reversal by the compound). The results are shown in table 5 below, expressed as lowest active dose (L.A.D.) required to exert a statistically significant (p<0.05) reduction of 2DG uptake in the hippocampus compared to memantine response.

male Wiga Wistar rats = experiment: Conditioned avoidance response (CAR) test; format: in vivo; settings: Rattus norvegicus, po, criterion median avoidance latency >8 s, read-out: ED50 CAR-Inh.
Text: The apparatus consisted of an inner box surrounded by an outer box. The inner box was composed of four walls of transparent, synthetic material (length×width×height: 30×30×30 cm), an open top, and a grid floor made of 15 pairs of iron bars (2 mm diameter; 6 mm inter-bar distance). Odd and even bars were connected with a source of alternative current (1.0 mA; Coulbourn Instruments Solid State Shocker/Distributor), which could be interrupted by a switch. The outer box was composed of the same material (length×width×height: 40×40×36 cm), also with an open top, with a distance of 5 cm between the inner and outer box on all sides. To decrease the amount of environmental stimuli, three walls of the outer box were made non-transparent. The front wall was left transparent to allow the necessary inspection of the animal during the test. The upper edge of the outer and inner box served as a target for the rats on which to jump with fore- and hind-paws, respectively.
From their arrival in the laboratory on the experimental day, male Wiga Wistar rats (230±30 g) were housed in individual cages provided with bedding material.
Latency to avoidance was recorded. The median avoidance response obtained over the three experimental sessions for each rat were used for further calculations.

rats = experiment: Sleep wake electroencephalography (SW-EEG) in rats; format: in vivo; settings: 3 mg/kg, p.o.
Text: Sleep Wake Electroencephalography (SW-EEG) in Rats SW-EEG analyses are a highly sensitive read-out of a compound's central functional activity that may provide additional insight in the potential therapeutic application (i.e. via drug classification fingerprinting). […] Internal efforts have confirmed that this effect is mGlu2 receptor-mediated, i.e. is absent in mGlu2 KO mice. Sleep abnormalities are often associated with CNS disorders; as such, the potential use of mGlu2 modulators could also have benefit in the treatment of CNS disorders in which (REM) sleep aberrations are manifested. More specifically, the combination of a persistent reduction in REM occurrence and an increase in REM latency is one of the key features of the typical SW architecture fingerprint of most clinically active antidepressants.
We investigated the effects of oral administration of compounds according to the invention on SW organization in rats. The mGlu2/3 receptor agonist LY404039 was also evaluated to allow comparison.

male NMRI mice [2] = experiment: d-Amphetamine-induced hyperlocomotion in mice; format: in vivo; settings: Mus musculus, d-amphetamine 5 mg/kg s.c., compound administered orally, read-out: ED50 Amp.-Inh.
Experimental: as §1, with “An infrared sensitive tube camera and a white light source (in arena: 4-7 LUX) were mounted to the ceiling above the observation chamber to record and input activity to a computer.” left out, “Data were then exported to data management systems for further analysis and reporting.” left out
Test compound or solvent was administered at a pre-defined time before measurement (standard: 30 min) to male NMRI mice that were challenged with d-amphetamine (5 mg/kg, s.c.) 30 min before measurement. Activity was measured for a period of 30 min.

T1 sequence (Q14416 19-872): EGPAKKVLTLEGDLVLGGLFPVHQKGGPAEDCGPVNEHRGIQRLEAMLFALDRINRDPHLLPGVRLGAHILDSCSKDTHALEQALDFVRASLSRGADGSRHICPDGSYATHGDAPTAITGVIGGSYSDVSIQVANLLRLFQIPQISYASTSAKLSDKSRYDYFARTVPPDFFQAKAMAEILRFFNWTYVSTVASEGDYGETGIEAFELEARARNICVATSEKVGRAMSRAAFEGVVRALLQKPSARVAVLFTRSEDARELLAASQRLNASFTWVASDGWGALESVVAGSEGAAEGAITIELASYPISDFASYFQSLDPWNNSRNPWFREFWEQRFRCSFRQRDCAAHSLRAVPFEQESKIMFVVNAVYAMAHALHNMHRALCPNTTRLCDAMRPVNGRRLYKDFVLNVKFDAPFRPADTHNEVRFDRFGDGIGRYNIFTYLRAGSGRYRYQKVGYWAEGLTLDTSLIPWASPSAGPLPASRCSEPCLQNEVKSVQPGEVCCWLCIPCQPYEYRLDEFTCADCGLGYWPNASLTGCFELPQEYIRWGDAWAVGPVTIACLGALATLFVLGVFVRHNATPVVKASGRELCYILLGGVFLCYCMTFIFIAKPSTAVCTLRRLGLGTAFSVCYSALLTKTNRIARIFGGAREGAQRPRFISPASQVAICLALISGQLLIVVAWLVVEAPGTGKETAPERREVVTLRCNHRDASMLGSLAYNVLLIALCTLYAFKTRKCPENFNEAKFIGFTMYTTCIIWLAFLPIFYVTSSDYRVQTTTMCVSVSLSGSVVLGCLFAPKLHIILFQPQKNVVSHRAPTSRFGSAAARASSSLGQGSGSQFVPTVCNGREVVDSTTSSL

melting point | EC50 (human mGluR2 receptor) | SMILES | ED50 (male NMRI mice [1]) | L.A.D. (lowest active dose) for significant (p<0.05) reduction of 2DG uptake in the hippocampus compared to memantine response (Male mice (C57BL/6)) | ED50 (male Wiga Wistar rats; compound administered orally) | ED50 (male Wiga Wistar rats; not marked as oral) | effect on REM sleep (in words) (rats) | effect on memantine-induced brain glucose metabolism / 2DG uptake (in words) (Male mice (C57BL/6); mouse brain) | ED50 (male NMRI mice [2])
130.1 °C | 0.209 µM | Cc1cc(Oc2ccc(-c3ccn4c(CC(F)(F)F)nnc4c3Cl)cc2F)ccn1 [Co. No. 1, 7-[3-Fluoro-4-(2′-methyl-pyridin-4-yloxy)-phenyl]-8-chloro-3-(2,2,2-trifluoro-ethyl)-1,2,4-triazolo[4,3-a]pyridine] | 18.7 mg/kg | >10 mg/kg | 21.4 mg/kg | 12.3 mg/kg | – | – | –
– | – | N[C@@]1(C(=O)O)CS(=O)(=O)[C@H]2[C@H](C(=O)O)[C@H]21 [LY404039, reference compound] | – | – | – | – | affect REM sleep | inhibited | –
– | 0.0501 µM | Cc1cc(Oc2ccc(-c3ccn4c(CC5CC5)nnc4c3C(F)(F)F)cc2F)ccn1 [Co. No. 2, 7-[3-Fluoro-4-(2′-methyl-pyridin-4-yloxy)-phenyl]-8-trifluoromethyl-3-cyclopropylmethyl-1,2,4-triazolo[4,3-a]pyridine] | 12.3 mg/kg | 10 mg/kg | 21.4 mg/kg | 18.7 mg/kg | – | – | 28.3 mg/kg

— US8716480B2, “7-aryl-1,2,4-triazolo[4,3-a]pyridine derivatives and their use as positive allosteric modulators of mGluR2 receptors” (Janssen Pharmaceuticals, Inc., priority 2009, dated 2014)
